The results in this text go back to US20110039762A1, “TARGETED ANTIMICROBIAL MOIETIES” (C3 JIAN, INC., priority 2009, published 2011).

“Also recorded” adds a separate entry of the source.

The first test relates to microorganisms (e.g., bacteria, yeasts, fungi). Briefly: Targeting peptide binding to target microorganisms (Table 3). Particulars: microorganism the targeting peptide binds; binding in aqueous buffers varied by peptide solubility, preferably 1x PBS.
As to “1T-198 (MPVSKKRYMLSSAYATALGICYGQVATDEKESEITAIPDLLDYLSVEEYLL; Peptide with targeting and/or antimicrobial activity) [Peptide 1T-198]”, the “Target(s)” value is “P. gingivalis; also recorded: S. epidermidis; also recorded: S. gordonii; also recorded: S. mitis; also recorded: S. mutans; also recorded: S. oralis; also recorded: S. sanguinis”.
Still for that read-out and setting: the entry for “1T-64 (QTVHHIHMHVLGQRQMHWPPG; Peptide with targeting and/or antimicrobial activity) [Peptide 1T-64]” is “S. aureus; also recorded: S. epidermidis; also recorded: C. jeikeium; also recorded: C. xerosis; also recorded: C. striatum; also recorded: P. aeruginosa”; for “1T-67 (GQRQRLTCGRVSGCSEGPSREAAR; Peptide with targeting and/or antimicrobial activity) [Peptide 1T-67]” it is “S. aureus; also recorded: S. epidermidis; also recorded: C. jeikeium; also recorded: C. xerosis; also recorded: C. striatum; also recorded: P. aeruginosa”; for “1T-9 (WAWAESPRCVSTRSNIHALAFRVEVAALT; Peptide with targeting and/or antimicrobial activity) [Peptide 1T-9]” it is “M. xanthus”.
The same measure, in the same setting: the entry for “1T-51 (GKPKRMPAEFIDGYGQALLAGA; Peptide with targeting and/or antimicrobial activity) [Peptide 1T-51]” is “S. aureus; also recorded: P. aeruginosa”; for “1T-301 (SKLPRVLDASLKL; Peptide with targeting and/or antimicrobial activity) [Peptide 1T-301]” it is “F. nucleatum; also recorded: S. gordonii; also recorded: S. sanguinis”.
Consider “1T-46 (FSFKQRVMFRKEVERLR; Peptide with targeting and/or antimicrobial activity) [Peptide 1T-46]”, for which the “Target(s)” value is given as “S. aureus; also recorded: S. epidermidis; also recorded: C. jeikeium; also recorded: C. xerosis; also recorded: C. striatum; also recorded: P. aeruginosa”.
Same read-out and setting: with “PF-014 (HPTDNKHN; Peptide with targeting and/or antimicrobial activity)” the entry was “E. coli; also recorded: C. jeikeium”; with “1T-65 (HARAAVGVAELPRGAAVEVELIAAVRP; Peptide with targeting and/or antimicrobial activity) [Peptide 1T-65]”, “S. mutans; also recorded: S. aureus; also recorded: S. epidermidis; also recorded: C. jeikeium; also recorded: C. xerosis; also recorded: C. striatum; also recorded: P. aeruginosa”.
“PF-060 (HSSHL; Peptide with targeting and/or antimicrobial activity)”: the “Target(s)” value is given as “E. coli; also recorded: C. albicans; also recorded: C. jeikeium”.
Consider “1T-110 (LAAKTAVCVGRAFM; Peptide with targeting and/or antimicrobial activity) [Peptide 1T-110]”, for which the “Target(s)” value is “A. naeslundii; also recorded: P. gingivalis; also recorded: S. epidermidis; also recorded: S. gordonii; also recorded: S. mitis; also recorded: S. mutans; also recorded: S. oralis; also recorded: S. sanguinis”.
“1T-19 (PGAFRNPQMPRG; Peptide with targeting and/or antimicrobial activity) [Peptide 1T-19]”: the “Target(s)” value is listed as “S. aureus; also recorded: S. epidermidis; also recorded: P. aeruginosa”.
The same measure, in the same setting: with “TT-309 (EPLPLTKYDKKDTEMKKVFKEILAGKVGYEKEEE; Peptide with targeting and/or antimicrobial activity)” the entry was “F. nucleatum”; with “1T-105 (GEGLPPPVLHLPPPRMSGR; Peptide with targeting and/or antimicrobial activity) [Peptide 1T-105]”, “S. epidermidis; also recorded: S. gordonii; also recorded: S. mitis; also recorded: S. mutans; also recorded: S. oralis”; with “1T-78 (FFKTIFVLILGALGVAAGLYIEKNYIDK; Peptide with targeting and/or antimicrobial activity) [Peptide 1T-78]”, “S. pneumoniae”.
Same read-out and setting: the entry for “1T-170 (AYGKVFSMDIMLSENDKLIVLRISHHSAWH; Peptide with targeting and/or antimicrobial activity) [Peptide 1T-170]” is “P. gingivalis”; for “1T-37 (YIVGALVILAVAGLIYSMLRKA; Peptide with targeting and/or antimicrobial activity) [Peptide 1T-37]” it is “S. mutans; also recorded: S. aereus; also recorded: S. epidermidis; also recorded: C. jeikeium; also recorded: C. xerosis; also recorded: C. striatum; also recorded: P. aeruginosa”.
Still for that read-out and setting: with “1T-216 (FFLNVIAIRIPHF; Peptide with targeting and/or antimicrobial activity) [Peptide 1T-216]” the entry was “S. sanguinis”; with “1T-3 (VLGIAGGLDAYGELVGGN; Peptide with targeting and/or antimicrobial activity) [Peptide 1T-3]”, “S. mutans; also recorded: S. gordonii”.

The test is the same for the next values; noted with them: microorganism(s) the targeting peptide binds; binding in aqueous buffers depending on peptide solubility, preferably 1x PBS.
As to “PF-367 (TKTPGTFTPGTGIQKTAVPL; Peptide with targeting and/or antimicrobial activity)”, the “Target(s)” value is “B. subtilis”.
Regarding “PF-185 (RPAQARQGPGGLIADRHIRA; Peptide with targeting and/or antimicrobial activity)”, the “Target(s)” value is given as “E. coli; also recorded: P. aeruginosa”.
Still for that read-out and setting: the entry for “PF-134 (GKAMKRQDCSAL; Peptide with targeting and/or antimicrobial activity)” is “S. epidermidis; also recorded: C. jeikeium”.
Take “PF-372 (KKQDKRIEDKYKRMKKGD; Peptide with targeting and/or antimicrobial activity)”: the “Target(s)” value is recorded as “C. jeikeium; also recorded: C. jejuni”.
On the same count and under the same terms, with “PF-142 (GIDRGCQAAR; Peptide with targeting and/or antimicrobial activity)” the entry was “S. mutans”; with “PF-361 (NQVTEGIRLLVE; Peptide with targeting and/or antimicrobial activity)”, “S. epidermidis; also recorded: E. coli; also recorded: E. faecalis; also recorded: C. jejuni”.
The same measure, in the same setting: with “PF-317 (LILVSDI; Peptide with targeting and/or antimicrobial activity)” the entry was “S. mutans”; with “PF-275 (LVSGVANTVKNTAHTVGNTAKHAGHVAADTTVKATKKQQVK; Peptide with targeting and/or antimicrobial activity)”, “S. mutans”.
Same read-out and setting: the entry for “PF-159 (TMAFVEKAQLRVPVGDDLPV; Peptide with targeting and/or antimicrobial activity)” is “S. epidermidis”.
In the case of “PF-254 (FIYGVGFVPHFWLWKWLFSPWIAWPLMLLGYYIWFLT; Peptide with targeting and/or antimicrobial activity)”, the “Target(s)” value is “S. epidermidis; also recorded: M. luteus; also recorded: P. aeruginosa; also recorded: A. baumannii”.
On the same count and under the same terms, with “PF-130 (LQRSDEESMPRRHEKYS; Peptide with targeting and/or antimicrobial activity)” the entry was “E. faecalis; also recorded: C. jeikeium; also recorded: C. jejuni”.

Still in this test, the particulars now being: microorganism(s) the targeting peptide binds; peptide binding conducted in aqueous buffers varied by peptide solubility, preferably 1x PBS.
Take “PF-506 (SGRGFALIVVLFILLIIVGAACIR; Peptide with targeting and/or antimicrobial activity)”: the “Target(s)” value is listed as “S. mutans; also recorded: E. coli”.
Same read-out and setting: the entry for “PF-487 (MYKAIAVLAMTIMAFFIFVYPFFIVGLILG; Peptide with targeting and/or antimicrobial activity)” is “S. mutans; also recorded: E. coli”; for “PF-436 (KKHVLVGKQEKNG; Peptide with targeting and/or antimicrobial activity)” it is “C. jeikeium”.
For the substance “PF-493 (PGAFFFCRGRGCWCGIGW; Peptide with targeting and/or antimicrobial activity)”, the “Target(s)” value is on record as “S. mutans; also recorded: B. subtilis; also recorded: E. coli”.
Regarding “PF-483 (EDNKDKKDKKDK; Peptide with targeting and/or antimicrobial activity)”, the “Target(s)” value is “P. mirabilis; also recorded: C. jeikeium; also recorded: C. jejuni”.

The test is the same for the next values; noted with them: peptide binding in aqueous buffers varied by peptide solubility; preferably 1x PBS.
Take “PF-790 (PAGPDHLDQRDHR; Peptide with targeting and/or antimicrobial activity)”: the “Target(s) (microorganisms bound by the targeting peptide)” value is given as “Mycobacteria spp”.
The same measure, in the same setting: with “PF-787 (MTERQRRALLKQHPEVVSWSDYLEKRKRRTGTAG; Peptide with targeting and/or antimicrobial activity)” the entry was “Mycobacteria spp”.
With “PF-712 (QIYRHVHKVQAKSANLRLY; Peptide with targeting and/or antimicrobial activity)”, the “Target(s) (microorganisms bound by the targeting peptide)” value is given as “S. mutans; also recorded: E. coli”.
The same measure, in the same setting: with “PF-C045 (FREGMGWPLSNEGSPTAPLPKHRNQV; Peptide with targeting and/or antimicrobial activity)” the entry was “A. naeslundii; also recorded: T. denticola”; with “PF-733 (VISRQMGSEAVLELFIIM; Peptide with targeting and/or antimicrobial activity)”, “S. mutans; also recorded: E. coli”.
On the same count and under the same terms, with “PF-783 (FTSEVRGVFTYRVNKAGLITNMRGYWNLDMMTFGNQE; Peptide with targeting and/or antimicrobial activity)” the entry was “Mycobacteria spp”.
On the same count and under the same terms, with “PF-707 (IDPESIVTTNNKQDNVDEQ; Peptide with targeting and/or antimicrobial activity)” the entry was “S. mutans; also recorded: E. coli”; with “PF-766 (DAYYAQLRKQKEIEEGA; Peptide with targeting and/or antimicrobial activity)”, “S. epidermidis and M. luteus and C. albicans and MRSA and E. faecalis and C. jeikeium”.
